{
  "source": "patent US20100093667A1",
  "about": "“SALTS OF HIV INHIBITOR COMPOUNDS” (Gilead Sciences, Inc., priority 2008, published 2010)",
  "system": "HIV-1 IIIB",
  "assay": "Anti-HIV-1 activity in MT-2 cells, virus-induced cytopathic effect (CellTiter-Glo)",
  "assay_type": "cell-based",
  "method": "MT-2 cells were maintained in RPMI-1640 medium supplemented with antibiotics and 10% fetal bovine serum (FBS). MT-2 cells were infected with HIV-1 IIIB at a multiplicity of infection (moi) of 0.01 and added to 96-well plates with serial dilutions of tested compounds at a density of 20,000 cells/well. […] Activity against NRTI-resistant mutants was determined in parallel with wild-type control virus and fold change in EC50 was calculated.",
  "data": [
    {"smiles": "CCOC(=O)[C@H](C)N[P@](=O)(CO[C@@H]1C=C(F)[C@H](n2cnc3c(N)ncnc32)O1)Oc1ccccc1", "note": "(single isomer, unassigned) [Prodrug]", "values": [
      {"measurement": "EC50", "setting": "Human immunodeficiency virus 1, MT2, 120 h, MT-2 cells, HIV-1 IIIB, 5-day incubation, mean ± SD", "value": "150 ± 40", "unit": "nM"},
      {"measurement": "more potent than the parent compound", "setting": "MT-2", "value": 71, "unit": "fold"}
    ]}
  ]
}
